Laboratory results reported in BindingDB's records for doi:10.1021/acs.jmedchem.0c00656 (2020).

Biological target: T1, Vitamin D3 receptor A (Danio rerio, UniProt Q9PTN2)
T1 sequence (Q9PTN2 whole entry): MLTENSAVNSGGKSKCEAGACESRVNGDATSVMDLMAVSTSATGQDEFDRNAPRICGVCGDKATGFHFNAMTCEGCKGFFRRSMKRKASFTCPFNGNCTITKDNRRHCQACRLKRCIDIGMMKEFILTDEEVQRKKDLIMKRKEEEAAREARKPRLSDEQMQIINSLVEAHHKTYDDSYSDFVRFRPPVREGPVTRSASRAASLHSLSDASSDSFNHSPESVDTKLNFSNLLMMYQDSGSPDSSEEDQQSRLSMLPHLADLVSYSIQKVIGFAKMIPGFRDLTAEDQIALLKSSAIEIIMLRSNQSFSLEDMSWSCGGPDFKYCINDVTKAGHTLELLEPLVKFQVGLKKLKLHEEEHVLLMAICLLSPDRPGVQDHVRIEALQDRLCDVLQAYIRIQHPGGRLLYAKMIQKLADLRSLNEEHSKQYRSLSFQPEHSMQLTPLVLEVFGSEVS
Test: Binding affinity to zebrafish VDR LBD assessed as Kd for fluorescein-labeled SRC1 NR2 peptide binding by micro-scale thermophoresis method

Kd: > 30 µM
SMILES: C=C1/C(=C\C=C2/CCC[C@]3(C)[C@@H]([C@H](C)/C=C/[C@@H](O)C4(/C=C/C(=O)OCC)CC4)CC[C@@H]23)C[C@@H](O)C[C@@H]1O
